Laboratory results taken from PubChem BioAssay (NCI).
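How tested: cells in 96-well plates exposed to compound for 48 hours at five concentrations. TGI: total growth inhibition.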

Key:
Assay in all cases: growth of human tumour cells (NCI), 48 h
A549 NSCLC = system: A549 NSCLC
BT-549 breast = system: BT-549 breast
MDA-MB-231 breast = system: MDA-MB-231 breast
SF-539 CNS = system: SF-539 CNS
SNB-75 CNS = system: SNB-75 CNS
DMS 273 small cell lung = system: DMS 273 small cell lung
LXFL 529 NSCLC = system: LXFL 529 NSCLC
KM20L2 colon = system: KM20L2 colon
XF 498 CNS = system: XF 498 CNS
HOP-18 NSCLC = system: HOP-18 NSCLC
M19-MEL melanoma = system: M19-MEL melanoma
DMS 114 small cell lung = system: DMS 114 small cell lung
RXF-631 renal = system: RXF-631 renal
DLD-1 colon = system: DLD-1 colon
SNB-78 CNS = system: SNB-78 CNS

| Structure (SMILES) | TGI (A549 NSCLC) [µM] | TGI (BT-549 breast) [µM] | TGI (MDA-MB-231 breast) [µM] | TGI (SF-539 CNS) [µM] | TGI (SNB-75 CNS) [µM] | TGI (DMS 273 small cell lung) [µM] | TGI (LXFL 529 NSCLC) [µM] | TGI (KM20L2 colon) [µM] | TGI (XF 498 CNS) [µM] | TGI (HOP-18 NSCLC) [µM] | TGI (M19-MEL melanoma) [µM] | TGI (DMS 114 small cell lung) [µM] | TGI (RXF-631 renal) [µM] | TGI (DLD-1 colon) [µM] | TGI (SNB-78 CNS) [µM] |
| --- | --- | --- | --- | --- | --- | --- | --- | --- | --- | --- | --- | --- | --- | --- | --- |
| CC(=O)Nc1nc2c(=O)c3ccccc3sc2s1 | > 100 | > 100 | > 100 | > 100 | > 100 | – | – | – | – | – | – | – | – | – | – |
| N#CCC(=O)N/N=C\C(O)C(O)C(O)C(O)CO (stereo not given) | > 100 | > 100 | > 100 | > 100 | > 100 | – | – | – | – | – | – | – | – | – | – |
| COC(=O)C(=O)C(C(=O)C(=O)Nc1cccc(OC)c1)c1nc2ccc(Cl)cc2[nH]c1=O (stereo not given) | > 100 | > 100 | > 100 | > 100 | > 100 | – | – | – | – | – | – | – | – | – | – |
| COc1cc(Nc2nc3cc(C)ccc3nc2-c2ccccc2)cc(OC)c1OC | > 100 | – | – | – | > 100 | 49.6 | > 100 | > 100 | 42.1 | 73.1 | 71 | 31.5 | – | – | – |
| CCOc1ccc(NC(=O)C(=O)C(/C(=N/N)C(=O)OC)c2nc3ccc([N+](=O)[O-])cc3[nH]c2=O)cc1 (stereo not given) | > 100 | > 100 | > 100 | > 100 | > 100 | – | – | – | – | – | – | – | – | – | – |
| CC1(C)CC(=O)C(C(=O)Nc2cccs2)=C(O)C1 | > 100 | – | – | > 100 | 59.3 | 82 | > 100 | > 100 | 82.7 | > 100 | > 100 | – | > 100 | > 100 | > 100 |
| O=C(/C=C/c1ccccc1)CCN1CCCCC1 | > 100 | > 100 | 63.9 | 37.7 | > 100 | – | – | – | – | – | – | – | – | – | – |
| CC(=O)NC(CCCNC(=O)OCc1ccccc1)C(=O)NCc1ccccc1 (stereo not given) | > 100 | – | – | > 100 | > 100 | > 100 | > 100 | > 100 | > 100 | – | > 100 | > 100 | – | > 100 | – |
| O=C(O)CCC(NC(=O)c1ccc(Nc2nc3ccc(C(F)(F)F)cc3nc2C(=O)O)cc1)C(=O)O (stereo not given) | > 100 | > 100 | > 100 | > 100 | > 100 | – | – | – | – | – | – | – | – | – | – |
| N#CC1=C(S)N(C2OC(CO)C(O)C(O)C2O)C(c2ccccc2)=CC1c1ccco1 (stereo not given) | > 100 | > 100 | > 100 | > 100 | 45.1 | – | – | – | – | – | – | – | – | – | – |
| CC(C)(C)C1CC[C@H]2c3c([nH]c4ccccc34)[C@H]3C(=O)N(c4ccc(F)cc4)C(=O)[C@H]3[C@H]2C1 (stereo not given in full) | 26.1 | – | – | 35.9 | 23 | 33.3 | 30.7 | 46.5 | 32.3 | 34.4 | 34.7 | 38 | – | 37.4 | 36.8 |
| Cc1[nH]c(=O)c2oc3cc4ccccc4cc3c2c1C(=O)O | > 10 | > 10 | > 10 | > 10 | > 10 | – | – | – | – | – | – | – | – | – | – |
| Cc1cccc(C)c1NC(=O)C(=O)CC(=O)c1sc(Nc2c(C)cccc2C)nc1C | > 100 | > 100 | > 100 | > 100 | > 100 | – | – | – | – | – | – | – | – | – | – |
| CC(C)(C)n1c(=O)n2c(-c3ccccc3)c(-c3ccccc3)n2c1=O | > 100 | > 100 | > 100 | > 100 | > 100 | – | – | – | – | – | – | – | – | – | – |
| CCOC(=O)C1C(NC(N)=O)N(Cc2ccccc2)C(=O)N1Cc1ccccc1 (stereo not given) | > 100 | – | – | > 100 | > 100 | > 100 | > 100 | > 100 | > 100 | > 100 | > 100 | > 100 | > 100 | > 100 | 29.2 |
| CCOC(=O)C1(C)CCC(C(=O)OC)C1=O (stereo not given) | > 100 | – | – | > 100 | > 100 | – | > 100 | > 100 | > 100 | > 100 | > 100 | 35.1 | – | > 100 | > 100 |
| C/C=C1/C=CC2c3[nH]c4ccccc4c3CCN2C1 (stereo not given) | > 400 | – | – | > 400 | – | > 400 | > 400 | > 400 | > 400 | 279 | > 400 | > 400 | > 400 | > 400 | – |
| O=c1c2cc(Br)ccc2nc(CNc2ccccc2)n1-c1ccccc1 | > 62.7 | – | – | 32.7 | > 59.5 | > 100 | 36.9 | > 100 | 29.1 | > 53.3 | 29.7 | 25.6 | – | 21.6 | 57.9 |
| Cc1cc2nnn(C3CCCCO3)c2cc1C (stereo not given) | > 100 | > 100 | > 100 | > 100 | > 100 | – | – | – | – | – | – | – | – | – | – |
| Nc1ccc2c(=S)c3ccccc3[nH]c2c1 | > 100 | > 100 | > 100 | > 100 | > 100 | – | – | – | – | – | – | – | – | – | – |
| COC(=O)c1ccc(CCC2=CC(=O)C=CC2=O)cc1 | 60.5 | 24.4 | > 68.4 | 25.6 | 32 | – | – | – | – | – | – | – | – | – | – |
| COC(=O)C1=C(OC)C(=P2(c3ccccc3)CC(c3ccccc3)=C2c2ccccc2)C(C(=O)OC)=C1C(=O)OC (stereo not given) | > 100 | > 100 | > 100 | > 95.5 | > 100 | – | – | – | – | – | – | – | – | – | – |
| Cc1nc2ccc(N=Nc3c(C)noc3C)cc2[nH]1 | > 100 | > 100 | 96.6 | 70.7 | 32.9 | – | – | – | – | – | – | – | – | – | – |
| CCOC(=O)c1cn(-c2ccc([N+](=O)[O-])cc2)c(=S)n2c1nc1ccccc12 | > 100 | > 100 | > 100 | > 100 | > 100 | – | – | – | – | – | – | – | – | – | – |
| CCCN1C(=O)CN(S(=O)(=O)c2ccc(Cl)cc2)C1=O | > 100 | > 100 | > 100 | > 100 | > 100 | – | – | – | – | – | – | – | – | – | – |
| Nc1nccc(NCC2(CO)CC(CCc3ccccc3)C2)n1 (stereo not given) | 39.7 | 40.3 | 48.9 | 32.1 | 40.5 | – | – | – | – | – | – | – | – | – | – |
